# From BindingDB's records for doi:10.1021/jm00015a003 (Warner-Lambert, 1995)
# Square brackets hold non-standard residues; d marks the D form. Peptide text beside a SMILES is read from it. dDip = N[C@@H](C(=O)O)C(c1ccccc1)c1ccccc1; Dip = N[C@H](C(=O)O)C(c1ccccc1)c1ccccc1; Orn = NCCC[C@H](N)C(=O)O
# Assay: Inhibition of ET-1 stimulated arachidonic acid release in rabbit renal vascular smooth muscle cells
row,Structure (SMILES),IC50 [nM]
1,"CC[C@H](C)[C@H](NC(=O)[C@H](C)NC(=O)[C@H](CC(C)C)NC(=O)[C@@H](NC(C)=O)C(c1ccccc1)c1ccccc1)C(=O)N[C@H](C(=O)N[C@@H](Cc1c[nH]c2ccccc12)C(=O)O)[C@@H](C)CC [(S)-2-[(2S,3S)-2-((2S,3S)-2-{(S)-2-[(S)-2-((S)-2-Acetylamino-3,3-diphenyl-propionylamino)-4-methyl-pentanoylamino]-propionylamino}-3-methyl-pentanoylamino)-3-methyl-pentanoylamino]-3-(1H-indol-3-yl)-propionic acid] (Ac-[Dip]LAIIW-OH)",70
2,"CC[C@H](C)[C@H](NC(=O)[C@H](CC(=O)O)NC(=O)[C@@H](Cc1ccccc1)NC(=O)[C@@H](NC(C)=O)C(c1ccccc1)c1ccccc1)C(=O)N[C@H](C(=O)N[C@@H](Cc1c[nH]c2ccccc12)C(=O)O)[C@@H](C)CC [(S)-3-[(R)-2-((S)-2-Acetylamino-3,3-diphenyl-propionylamino)-3-phenyl-propionylamino]-N-((1S,2S)-1-{(1S,2S)-1-[(S)-1-carboxy-2-(1H-indol-3-yl)-ethylcarbamoyl]-2-methyl-butylcarbamoyl}-2-methyl-butyl)-succinamic acid]",520
3,"CC[C@H](C)[C@H](NC(=O)[C@H](CC(=O)O)NC(=O)[C@H](CC(C)C)NC(=O)[C@H](NC(C)=O)C(c1ccccc1)c1ccccc1)C(=O)N[C@H](C(=O)N[C@@H](Cc1c[nH]c2ccccc12)C(N)=O)[C@@H](C)CC [(S)-3-[(S)-2-((S)-2-Acetylamino-3,3-diphenyl-propionylamino)-4-methyl-pentanoylamino]-N-((1S,2S)-1-{(1S,2S)-1-[(S)-1-carbamoyl-2-(1H-indol-3-yl)-ethylcarbamoyl]-2-methyl-butylcarbamoyl}-2-methyl-butyl)-succinamic acid] (Ac-[dDip]LDIIW-NH2)",6000
4,"CC[C@H](C)[C@H](NC(=O)[C@H](CC(=O)O)NC(=O)[C@H](CC(C)C)NC(=O)[C@H](NC(C)=O)C(c1ccccc1)c1ccccc1)C(=O)N[C@@H](Cc1ccccc1)C(=O)N[C@@H](Cc1c[nH]c2ccccc12)C(=O)O [(S)-3-[(S)-2-((S)-2-Acetylamino-3,3-diphenyl-propionylamino)-4-methyl-pentanoylamino]-N-((1S,2S)-1-{(S)-1-[(S)-1-carboxy-2-(1H-indol-3-yl)-ethylcarbamoyl]-2-phenyl-ethylcarbamoyl}-2-methyl-butyl)-succinamic acid]",> 10000
5,"CC[C@H](C)[C@H](NC(=O)[C@H](CC(=O)O)NC(=O)[C@H](CC(C)C)NC(=O)[C@H](NC(C)=O)C(c1ccccc1)c1ccccc1)C(=O)N[C@@H](CC(C)C)C(=O)N[C@@H](Cc1c[nH]c2ccccc12)C(=O)O [(S)-3-[(S)-2-((S)-2-Acetylamino-3,3-diphenyl-propionylamino)-4-methyl-pentanoylamino]-N-((1S,2S)-1-{(S)-1-[(S)-1-carboxy-2-(1H-indol-3-yl)-ethylcarbamoyl]-3-methyl-butylcarbamoyl}-2-methyl-butyl)-succinamic acid]",340
6,"CC[C@H](C)[C@H](NC(=O)[C@H](CC(=O)O)NC(=O)[C@H](CC(C)C)NC(=O)[C@@H](NC(C)=O)C(c1ccccc1)c1ccccc1)C(=O)N[C@@H](CCCCN)C(=O)N[C@@H](Cc1c[nH]c2ccccc12)C(=O)O [(S)-3-[(S)-2-((S)-2-Acetylamino-3,3-diphenyl-propionylamino)-4-methyl-pentanoylamino]-N-((1S,2S)-1-{(S)-5-amino-1-[(S)-1-carboxy-2-(1H-indol-3-yl)-ethylcarbamoyl]-pentylcarbamoyl}-2-methyl-butyl)-succinamic acid] (Ac-[Dip]LDIKW-OH)",> 10000
7,"CC[C@H](C)[C@H](NC(=O)[C@@H](NC(=O)[C@H](CC(=O)O)NC(=O)[C@H](CC(C)C)NC(=O)[C@@H](NC(C)=O)C(c1ccccc1)c1ccccc1)C(C)C)C(=O)N[C@@H](Cc1c[nH]c2ccccc12)C(=O)O [(S)-3-[(S)-2-((S)-2-Acetylamino-3,3-diphenyl-propionylamino)-4-methyl-pentanoylamino]-N-((S)-1-{(1S,2S)-1-[(S)-1-carboxy-2-(1H-indol-3-yl)-ethylcarbamoyl]-2-methyl-butylcarbamoyl}-2-methyl-propyl)-succinamic acid] (Ac-[Dip]LDVIW-OH)",29
8,"CC[C@H](C)[C@H](NC(=O)[C@H](Cc1ccccc1)NC(=O)[C@H](CC(=O)O)NC(=O)[C@H](CC(C)C)NC(=O)[C@@H](NC(C)=O)C(c1ccccc1)c1ccccc1)C(=O)N[C@@H](Cc1c[nH]c2ccccc12)C(=O)O [(S)-3-[(S)-2-((S)-2-Acetylamino-3,3-diphenyl-propionylamino)-4-methyl-pentanoylamino]-N-((S)-1-{(1S,2S)-1-[(S)-1-carboxy-2-(1H-indol-3-yl)-ethylcarbamoyl]-2-methyl-butylcarbamoyl}-2-phenyl-ethyl)-succinamic acid] (Ac-[Dip]LDFIW-OH)",160
9,"CC[C@H](C)[C@H](NC(=O)[C@H](C)NC(=O)[C@H](CC(=O)O)NC(=O)[C@H](CC(C)C)NC(=O)[C@H](NC(C)=O)C(c1ccccc1)c1ccccc1)C(=O)N[C@@H](Cc1c[nH]c2ccccc12)C(=O)O [(S)-3-[(S)-2-((S)-2-Acetylamino-3,3-diphenyl-propionylamino)-4-methyl-pentanoylamino]-N-((S)-1-{(1S,2S)-1-[(S)-1-carboxy-2-(1H-indol-3-yl)-ethylcarbamoyl]-2-methyl-butylcarbamoyl}-ethyl)-succinamic acid]",420
10,"CC[C@H](C)[C@H](NC(=O)[C@H](CCCCN)NC(=O)[C@H](CC(=O)O)NC(=O)[C@H](CC(C)C)NC(=O)[C@H](NC(C)=O)C(c1ccccc1)c1ccccc1)C(=O)N[C@@H](Cc1c[nH]c2ccccc12)C(=O)O [(S)-3-[(S)-2-((S)-2-Acetylamino-3,3-diphenyl-propionylamino)-4-methyl-pentanoylamino]-N-((S)-5-amino-1-{(1S,2S)-1-[(S)-1-carboxy-2-(1H-indol-3-yl)-ethylcarbamoyl]-2-methyl-butylcarbamoyl}-pentyl)-succinamic acid]",> 10000
11,"CC[C@H](C)[C@H](NC(=O)[C@H](CC(=O)O)NC(=O)[C@H](CC(C)C)NC(=O)[C@H](NC(C)=O)C(c1ccccc1)c1ccccc1)C(=O)N[C@H](C(=O)N[C@@H](Cc1ccccc1)C(=O)O)[C@@H](C)CC [(S)-3-[(S)-2-((S)-2-Acetylamino-3,3-diphenyl-propionylamino)-4-methyl-pentanoylamino]-N-{(1S,2S)-1-[(1S,2S)-1-(1-carboxy-2-phenyl-ethylcarbamoyl)-2-methyl-butylcarbamoyl]-2-methyl-butyl}-succinamic acid]",> 10000
12,"CC[C@H](C)[C@H](NC(=O)[C@H](CC(=O)O)NC(=O)[C@H](CCCN)NC(=O)[C@@H](NC(C)=O)C(c1ccccc1)c1ccccc1)C(=O)N[C@H](C(=O)N[C@@H](Cc1c[nH]c2ccccc12)C(=O)O)[C@@H](C)CC [(S)-3-[(S)-2-((S)-2-Acetylamino-3,3-diphenyl-propionylamino)-5-amino-pentanoylamino]-N-((1S,2S)-1-{(1S,2S)-1-[(S)-1-carboxy-2-(1H-indol-3-yl)-ethylcarbamoyl]-2-methyl-butylcarbamoyl}-2-methyl-butyl)-succinamic acid] (Ac-[Dip][Orn]DIIW-OH)",30
